Experimental findings from patent US20180243421A1, “IMMUNOSTIMULATING AGENT” (AJINOMOTO CO., INC., priority 2015, published 2018) are described below.

The test system of data set [1] is IL-4. The data set is described as follows: Th2 response: IL-4 production from lymph node cells of immunized mice restimulated with OVA. Type of data set: in vivo, BALB/c mice. To be noted: Example 10; s.c. OVA 10 μg + 0.256 μmol in 5% αCD saline (Addavax 1:1); groin lymph node ten days later; 0.1-100 μg OVA, 40 hr, ELISA. The procedure:
(§1) Ten days later, groin lymph node was collected from all mice of the above-mentioned (1) to (4), lymph node cells were isolated and cultured in 10% FBS-containing RPMI1640 medium. Thereto was added 0.1 μg, 1 μg, 10 μg, 100 μg of OVA, respectively, 40 hr later, cell supernatant was recovered, and IFN-γ and IL-4 in the supernatant were measured by ELISA.
(In general: An ELISA detects its analyte on a solid surface through an enzyme-linked reagent.)

Data set [2] has as its system anti-OVA-specific IgG1 subclass antibody. The data set is described as follows: Adjuvant activity: anti-OVA-specific IgG1 subclass antibody in serum after secondary immunization (Examples 1, 5, 7, 8; ELISA absorbance). The format is in vivo, BALB/c mice. The conditions noted are these: Example 7. The procedure:
(§2) Two weeks from the secondary immunization, the whole blood was extracted under anesthesia, and the obtained serum sample was measured for anti-OVA-specific IgG1 subclass antibody.
A method for measurement of the anti-OVA-specific IgG1 subclass antibody in Example 1, and the following Examples 5, 7 and 8 is as follows.
Measurement Method of anti-OVA-specific IgG1 Subclass Antibody
(§3) To a 96 well plate was added 5 μg/ml OVA at 100 μl/well, and the mixture was incubated at 4° C. overnight. After incubation, the mixture was washed three times with 200 μl of PBS-T (PBS+0.05%(v/v) Tween 20) per well, and blocked with 100 μl of 5% FCS/PBS solution per well at room temperature for 1 to 2 hr. Thereafter, the mixture was washed three times with PBS-T (200 μl/well), a diluted serum sample (100 μl/well) or the same amount of 5% FCS/PBS solution as a control was added, and the mixture was incubated at 37° C. for 1 hr. Thereafter, the mixture was washed five times with PBS-T (200 μl/well), a diluted biotinylated anti-mouse IgG1 antibody (100 μl/well) was added, and the mixture was incubated at 37° C. for 45 min. Thereafter, the mixture was washed five times with PBS-T (200 μl/well), a diluted anti-biotin-HRP antibody was added (100 μl/well), and the mixture was incubated at 37° C. for another 30 min. Thereafter, the mixture was washed five times with PBS-T (200 μl/well), TMB substrate solution was added (100 μl/well), and the mixture was incubated at room temperature for 10 to 15 min. Thereafter, a reaction quenching liquid (2N sulfuric acid solution) was added (50 μl/well) to discontinue a color developing reaction, and the absorbance (OD Value=450 nm) was measured by a microplate reader.

The subject of data set [3] is anti-OVA-specific IgE antibody. To be noted: mouse, in vivo. As for the experimental part:
The serum sample obtained in Example 1 was measured for an anti-OVA-specific IgE antibody. The measurement method of the anti-OVA-specific IgE antibody in Example 3 and Examples 6, 9 is as follows.
Measurement Method of anti-OVA-specific IgE Antibody
DS mouse IgE ELISA (OVA) kit manufactured by DS Pharma Biomedical Co., Ltd. was used. The protocol is briefly shown below.
The serum sample and a standard reagent for drawing an analytical curve are diluted with a buffer and, after stirring, left standing at room temperature for 10 min. The sample and the standard solution are added to a plate bound with an IgE capture antibody in advance and, after stirring, the mixture is left standing at room temperature for 60 min. The mixture is washed three times with wash, HRP-labeled OVA is added, and the mixture is left standing at room temperature for 30 min. The mixture is washed three times with wash, a substrate solution is added, and the mixture is left standing in dark at room temperature for 30 min. A reaction quenching liquid is added, the mixture is stirred, and the absorbance (OD Value=450 nm) is immediately measured.
This test was performed in the same manner as in Example 3 except that N^2-hexadecanoyl-L-arginine (SZ61), N-hexadecanoylagmatine (SZ62), N^2-hexadecanoyl-L-arginine methyl ester hydrochloride (SZ63), N^2-octadecanoyl-L-glutamine tert-butyl ester (SZ64), and N^2-octadecanoyl-L-glutamine (SZ65) were used.
This test was performed in the same manner as in Example 6 except that N-hexadecanoylagmatine (SZ62), N^2-octadecanoyl-L-glutamine tert-butyl ester (SZ64), N-docosanoyl-L-leucine methyl ester (SZ70), and N-docosanoyl-L-phenylalanine methyl ester (SZ71) were used and a positive control adjuvant Addavax™ (InvivoGen) administration group was formed.
The allergy inducing activity test was performed in the same manner as in Example 3 except that Addavax™, N-(2-octadecyleicosanoyl)-L-leucine methyl ester (SZ86), N-hexadecanoyl-L-leucinamide (SZ90), N^2-hexadecanoyl-N^1,N^1-diethyl-L-leucinamide (SZ92), N^2-hexadecanoyl-L-arginine hexyl ester hydrochloride (SZ99) and N^2-docosanoyl-N^1,N^1-diethyl-L-glutamic acid 1-amide (SZ106) were used.
The allergy inducing activity test was performed in the same manner as in Example 3 except that Addavax™, N-(2-octadecyleicosanoyl)-L-leucine methyl ester (SZ86), N-hexadecanoyl-L-leucinamide (SZ90), N^2-hexadecanoyl-N^1,N^1-diethyl-L-leucinamide (SZ92), N-hexadecanoyl-L-leucine hexyl ester (SZ97), N^2-docosanoyl-N^1,N^1-diethyl-L-glutamic acid 1-amide (SZ106) and N-docosanoylagmatine hydrochloride (SZ108) were used.
8-Week-old female BALB/c mice were divided into groups (N=6), and each group was primarily immunized by dorsal-subcutaneous administration of (1) ovalbumin (OVA) (5 μg) dissolved in saline as an antigen (OVA single administration group), (2) OVA (10 μg) and aluminum hydroxide salt dissolved in saline (Alum administration group), (3) OVA 10 μg and Addavax™ (mixed with saline at 1:1) dissolved in saline (Addavax™ administration group), (4) OVA 10 μg and CpG 5 μg dissolved in saline (CpG administration group), (5) OVA 10 μg and MPL 5 μg dissolved in saline (MPL administration group), (6) OVA (5 μg) and SZ62 (0.256 μmol) dissolved or dispersed in 5% αCD-added saline (SZ62 administration group), (7) OVA (5 μg), SZ62 (0.256 μmol) and CpG 5 μg dissolved or dispersed in 5% αCD-added saline (SZ62+CpG administration group), (8) OVA 10 μg, Addavax™ (mixed with saline at 1:1) and CpG 5 μg dissolved in saline (Addavax™+CpG administration group), (9) OVA (5 μg), SZ62 (0.256 μmol) and MPL 5 μg dissolved or dispersed in 5% αCD-added saline (SZ62+MPL administration group), (10) OVA (10 μg), aluminum hydroxide salt (Alum) and MPL 5 μg dissolved in saline (Alum+MPL administration group), each per mouse. One week later, the secondary immunization was carried out by dorsal-subcutaneous administration of solutions or dispersions similar to those of the above-mentioned (1) to (10) again.

For data set [4], the system named is IFN-γ. The data set is described as follows: Th1 response: IFN-γ production from lymph node cells of immunized mice restimulated with OVA. The format is in vivo, BALB/c mice. To be noted: Example 10; s.c. OVA 10 μg + 0.256 μmol in 5% αCD saline (Addavax 1:1); groin lymph node ten days later; 0.1-100 μg OVA, 40 hr, ELISA. The procedure: as §1
In data set [5] the test system is anti-OVA-specific IgG1 subclass antibody. The data set is described as follows: Adjuvant activity: anti-OVA-specific IgG1 subclass antibody in serum after secondary immunization (Examples 12, 19, 20, 21). The format is in vivo, BALB/c mice. To be noted: Example 21; s.c.; SZ62 0.256 μmol in 5% αCD saline, CpG 5 μg, MPL 5 μg, Addavax 1:1, Alum; two weeks from secondary immunization.

In data set [6] the test system is anti-OVA-specific IgG2a subclass antibody. The data set is described as follows: Adjuvant activity: anti-OVA-specific IgG2a subclass antibody in serum after secondary immunization. Type of data set: in vivo, BALB/c mice. The conditions noted are these: Example 21; s.c.; SZ62 0.256 μmol in 5% αCD saline, CpG 5 μg, MPL 5 μg, Addavax 1:1, Alum; two weeks from secondary immunization. As for the experimental part:
as §2
Measurement Method of anti-OVA-specific IgG2a Subclass Antibody
as §3, with “IgG2a” for “IgG1”, “10-15” for “10 to 15”
Measurement Method of Concentration of anti-OVA-specific IgG1 Subclass Antibody and anti-OVA-specific IgG2a Subclass Antibody
To a 96 well plate was added 5 μg/ml OVA at 100 μl/well, and the mixture was incubated at 4° C. overnight. After incubation, the mixture was washed three times with 200 μl of PBS-T (PBS+0.05% (v/v) Tween 20) per well, and blocked with 100 μl of 5% FCS/PBS solution per well at room temperature for 1 to for 2 hr. […] When an anti-OVA-specific IgG2a subclass antibody was measured, the standard of an anti-OVA-specific IgG2a subclass antibody was added at 50 ng/ml, 25 ng/ml, 12,5 ng/ml, 6.25 ng/ml, 3.125 ng/ml, 1.56 ng/ml, 0.781 ng/ml, 0.391 ng/ml, 0.195 ng/ml, 0.098 ng/ml, 0.049 ng/ml, 0 ng/ml, per 1 well. […] Thereafter, a reaction quenching liquid (2N sulfuric acid solution) was added (50 μl/well) to discontinue a color developing reaction, and the absorbance (OD Value=450 nm) was measured by a microplate reader. A standard curve was drawn from the measured OD values, and the concentration was calculated.

As for `CCCCCCCCCCCCCCCCCCCCCC(=O)N[C@@H](CC(C)C)C(=O)OC` [SZ70, N-docosanoyl-L-leucine methyl ester], in data set [1], the “IL-4 production from lymph node cells” value was “did not show an increase”. In addition, the “adjuvant activity (IgG1) compared with Alum” value in data set [2] is given as “equivalent to or not less than that of Alum”. Also, the “anti-OVA-specific IgG1 subclass antibody production as compared to the OVA single administration group” value in data set [2] (same manner as Example 1, plus Addavax group) was “significantly increased”. Further, the “allergy inducing activity as compared to aluminum hydroxide gel adjuvant and Addavax” value in data set [3] was “lower allergy inducing activity”. Moreover, in data set [4], the “IFN-γ production from lymph node cells” value was “increased in an OVA volume dependent manner”.

As to “monophosphoryl lipid [MPL, reference compound]”, the “anti-OVA-specific IgG1 subclass antibody production as compared to the OVA single administration group” value in data set [5] is “significantly increased”. Moreover, the “anti-OVA-specific IgG2a subclass antibody production as compared to the OVA single administration group” value in data set [6] is on record as “tended to increase”.
